Reference: patent US11365196B2, “FGFR inhibitor and application thereof” (Betta Pharmaceuticals Co., Ltd., priority 2017, dated 2022)
Read-outs that look alike come from different tables or passages of the source.

Tests used:
FGFR4 = FGFR4 (Homo sapiens (Human), UniProt P22455); test: Kinase assay Method 1, mobility shift assay; type: biochemical; conditions: ATP at Km, numeric values, read-out: IC50(nM) value of compounds FGFR4
NCI-H1581 cells = test: Cell proliferation assay on NCI-H1581 (Table 7); type: cell-based, human
From the text: Test method: adding the appropriate volume of whole medium and the cells was suspended.

FGFR1 = FGFR1 (Homo sapiens (Human), UniProt P11362); test: Kinase assay Method 1, mobility shift assay
Sequence of FGFR1 (P11362 22-822): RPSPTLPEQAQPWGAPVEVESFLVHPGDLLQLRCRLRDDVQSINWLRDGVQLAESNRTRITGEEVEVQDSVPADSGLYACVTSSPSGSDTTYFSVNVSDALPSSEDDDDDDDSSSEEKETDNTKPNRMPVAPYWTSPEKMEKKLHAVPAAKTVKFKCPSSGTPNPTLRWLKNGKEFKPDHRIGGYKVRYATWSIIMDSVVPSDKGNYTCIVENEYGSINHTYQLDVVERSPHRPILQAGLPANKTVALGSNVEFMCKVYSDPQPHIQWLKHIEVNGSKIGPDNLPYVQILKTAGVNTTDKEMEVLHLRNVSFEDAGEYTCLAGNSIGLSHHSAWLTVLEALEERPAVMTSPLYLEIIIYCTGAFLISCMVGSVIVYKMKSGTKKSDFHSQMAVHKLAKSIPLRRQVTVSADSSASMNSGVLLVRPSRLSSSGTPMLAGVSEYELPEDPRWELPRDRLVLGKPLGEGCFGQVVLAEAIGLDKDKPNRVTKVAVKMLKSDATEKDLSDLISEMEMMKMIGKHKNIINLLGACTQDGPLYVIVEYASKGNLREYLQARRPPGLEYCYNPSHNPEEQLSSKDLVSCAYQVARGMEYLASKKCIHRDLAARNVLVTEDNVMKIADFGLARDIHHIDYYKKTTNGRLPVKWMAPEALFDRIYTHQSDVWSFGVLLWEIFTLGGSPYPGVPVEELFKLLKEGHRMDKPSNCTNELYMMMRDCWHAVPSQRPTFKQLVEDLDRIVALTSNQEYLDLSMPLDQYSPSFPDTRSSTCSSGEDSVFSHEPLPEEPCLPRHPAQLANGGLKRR
Experimental: Method 1: The inhibitory activity of some compounds of the present disclosure against FGFR1, FGFR2, FGFR3, FGFR4, KDR was tested by mobility shift assay (concentration of ATP is Km value).
Preparing of compounds: dilute test compounds to specific concentration using 100% DMSO

[1] = Homo sapiens, NCI-H1581, read-out: IC50(nM) value of compounds on NCI-H1581 cells
[2] = Homo sapiens, NCI-H1581, CellTiter 96 AQueous (144 hrs) or CellTiter Glo (96 hrs), class symbols, read-out: IC50(nM) value of compounds on NCI-H1581 cells
[3] = read-out: IC50(nM) value of compounds FGFR1, mobility shift assay, ATP at Km, class symbols

Sequence of FGFR4 (P22455 22-802): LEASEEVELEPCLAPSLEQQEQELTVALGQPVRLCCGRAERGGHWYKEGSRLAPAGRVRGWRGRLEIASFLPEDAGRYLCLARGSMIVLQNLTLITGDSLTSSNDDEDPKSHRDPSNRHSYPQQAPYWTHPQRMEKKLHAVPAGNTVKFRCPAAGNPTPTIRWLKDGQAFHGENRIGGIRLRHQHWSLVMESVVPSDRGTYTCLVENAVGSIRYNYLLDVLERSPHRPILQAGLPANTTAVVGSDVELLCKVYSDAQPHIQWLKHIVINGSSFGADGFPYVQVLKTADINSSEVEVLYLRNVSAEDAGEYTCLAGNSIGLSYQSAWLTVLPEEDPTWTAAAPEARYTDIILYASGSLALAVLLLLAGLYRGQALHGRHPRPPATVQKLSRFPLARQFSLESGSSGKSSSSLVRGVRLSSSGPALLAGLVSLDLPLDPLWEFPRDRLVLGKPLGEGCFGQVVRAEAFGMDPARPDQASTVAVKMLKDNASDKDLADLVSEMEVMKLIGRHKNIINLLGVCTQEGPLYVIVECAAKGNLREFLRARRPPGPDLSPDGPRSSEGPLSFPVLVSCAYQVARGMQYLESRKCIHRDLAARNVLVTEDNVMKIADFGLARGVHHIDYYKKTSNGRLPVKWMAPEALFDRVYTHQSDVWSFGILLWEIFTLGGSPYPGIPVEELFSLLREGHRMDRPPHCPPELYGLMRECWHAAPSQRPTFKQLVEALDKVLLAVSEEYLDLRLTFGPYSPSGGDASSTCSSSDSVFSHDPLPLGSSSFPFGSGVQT

SMILES	IC50 (NCI-H1581 cells; [2]) [nM]	IC50 (FGFR1; [3]) [nM]	IC50 (FGFR4) [nM]	also measured
COc1cc(OC)c(Cl)c(-c2cc3cnc(Nc4ccc(CN5CCN(C)CC5)cc4)nc3n3cnnc23)c1 [Compound 46, 6-(2-chloro-3,5-dimethoxyphenyl)-N-(4-((4-methylpiperazin-1-yl)methyl)phenyl)-[1,2,4]triazolo[4′,3′:1,6]pyrido[2,3-d]pyrimidin-2-amine]			56	IC50 (NCI-H1581 cells; [1]): 2.4 nM
Cc1nc2cc(Cl)c(-c3cc4cnc(Nc5ccc(N6CCOCC6)cc5)nc4n4cnnc34)cc2[nH]1 [Compound 81, 6-(5-chloro-2-methyl-1H-benzo[d]imidazol-6-yl)-N-(4-morpholinophenyl)-[1,2,4]triazolo[4′,3′:1,6]pyrido[2,3-d]pyrimidin-2-amine]			191	IC50 (NCI-H1581 cells; [1]): 9.3 nM
Cc1nc2cc(Cl)c(-c3cc4cnc(Nc5ccc(N6CCC(N(C)C)CC6)cc5)nc4n4cnnc34)cc2[nH]1 [Compound 78, 6-(5-chloro-2-methyl-1H-benzo[d]imidazol-6-yl)-N-(4-(4-(dimethylamino)piperidin-1-yl)phenyl)-[1,2,4]triazolo[4′,3′:1,6]pyrido[2,3-d]pyrimidin-2-amine]			600	IC50 (NCI-H1581 cells; [1]): 5.3 nM
COc1cc(OC)c(Cl)c(-c2cc3cnc(Nc4ccc5c(c4)CCNC5)nc3n3cnnc23)c1 [Compound 53, 6-(2-chloro-3,5-dimethoxyphenyl)-N-(1,2,3,4-tetrahydroisoquinolin-6-yl)-[1,2,4]triazolo[4′,3′:1,6]pyrido[2,3-d]pyrimidin-2-amine]			14	IC50 (NCI-H1581 cells; [1]): 0.7 nM
COc1cc(OC)c(Cl)c(-c2cc3cnc(Nc4ccc(C5CCNCC5)cc4)nc3n3cnnc23)c1 [Compound 102-2]			26	IC50 (NCI-H1581 cells; read-out: IC50(nM) value of compounds on NCI-H1581 cells): 0.9 nM
CCN1CCN(Cc2ccc(Nc3ncc4cc(-c5cc(OC)cc(OC)c5Cl)c5nncn5c4n3)cn2)CC1 [Compound 111, 6-(2-chloro-3,5-dimethoxyphenyl)-N-(6-((4-ethylpiperazin-1-yl)methyl)pyridin-3-yl)-[1,2,4]triazolo[4′,3′:1,6]pyrido[2,3-d]pyrimidin-2-amine]			288	IC50 (NCI-H1581 cells; [1]): 8.2 nM
CCN1CCN(Cc2ccc(Nc3ncc4cc(-c5cc(OC)cc(OC)c5Cl)c5nncn5c4n3)nc2)CC1 [Compound 17, 6-(2-chloro-3,5-dimethoxyphenyl)-N-(5-((4-ethylpiperazin-1-yl)methyl)pyridin-2-yl)-[1,2,4]triazolo[4′,3′:1,6]pyrido[2,3-d]pyrimidin-2-amine]	10 to 100	> 10		
COc1cc(OC)c(Cl)c(-c2cc3cnc(Nc4ccc(N5CC6CCC(C5)N6)cc4)nc3n3cnnc23)c1 [Compound 51, N-(4-(3,8-diazabicyclo[3.2.1]octan-3-yl)phenyl)-6-(2-chloro-3,5-dimethoxyphenyl)[1,2,4]triazolo[4′,3′:1,6]pyrido[2,3-d]pyrimidin-2-amine]			42	IC50 (NCI-H1581 cells; [1]): 1.4 nM
C=CC(=O)N1CCN(CCCc2nnc3c(-c4cc(OC)cc(OC)c4Cl)cc4cnc(NC)nc4n23)CC1 [Compound 113, 1-(4-((6-(2-chloro-3,5-dimethoxyphenyl)-2-(methylamino)-[1,2,4]triazolo[4′,3′:1,6]pyrido[2,3-d]pyrimidin-9-yl)propyl)piperazin-1-yl)prop-2-en-1-one]	10 to 100	> 10		
CCC(=O)Nc1ccc(Cc2nnc3c(-c4cc(OC)cc(OC)c4Cl)cc4cnc(NCCN5CCOCC5)nc4n23)cc1 [Compound 96, N-(4-((6-(2-chloro-3,5-dimethoxyphenyl)-2-((2-morpholinoethyl)amino)-[1,2,4]triazolo[4′,3′:1,6]pyrido[2,3-d]pyrimidin-9-yl)methyl)phenyl)propionamide]	> 100	> 100		
C=CC(=O)N1CCN(CCCc2nc3c(-c4cc(OC)cc(OC)c4Cl)cc4cnc(NC)nc4n3n2)CC1 [Compound 115, 1-(4-(3-(4-(2-chloro-3,5-dimethoxyphenyl)-8-(methylamino)-[1,2,4]triazolo[1′,5′:1,6]pyrido[2,3-d]pyrimidin-2-yl)propyl)piperazin-1-yl)prop-2-en-1-one]			6.8	
COc1cc(OC)c(Cl)c(-c2cc3cnc(Nc4ccc(N5C[C@@H](C)N[C@@H](C)C5)c(F)c4)nc3n3cnnc23)c1 [Compound 56, 6-(2-chloro-3,5-dimethoxyphenyl)-N-(4-((3S,5R)-3,5-dimethylpiperazin-1-yl)-3-fluorophenyl)-[1,2,4]triazolo[4′,3′:1,6]pyrido[2,3-d]pyrimidin-2-amine]			51	IC50 (NCI-H1581 cells; [1]): 1.2 nM
C=CC(=O)N1CCN(CCc2nnc3c(-c4cc(OC)cc(OC)c4Cl)cc4cnc(NC)nc4n23)CC1 [Compound 114, 1-(4-(2-(6-(2-chloro-3,5-dimethoxyphenyl)-2-(methylamino)-[1,2,4]triazolo[4′,3′:1,6]pyrido[2,3-d]pyrimidin-9-yl)ethyl)piperazin-1-yl)prop-2-en-1-one]	> 100	> 100		
COc1cc(OC)c(Cl)c(-c2cc3cnc(Nc4ccc(N5CC6CCC(C5)N6C)cc4)nc3n3cnnc23)c1 [Compound 23, 6-(2-chloro-3,5-dimethoxyphenyl)-N-(4-(8-methyl-3,8-diazabicyclo[3.2.1]octan-3-yl)phenyl)-[1,2,4]triazolo[4′,3′:1,6]pyrido[2,3-d]pyrimidin-2-amine]	< 1			IC50 (FGFR1): < 1 nM
C=CC(=O)Nc1ccc(Cc2nc3c(-c4cc(OC)cc(OC)c4Cl)cc4cnc(NCCN5CCOCC5)nc4n3n2)cc1 [Compound 112, N-(4-((4-(2-chloro-3,5-dimethoxyphenyl)-8-((2-morpholinoethyl)amino)-[1,2,4]triazolo[1′,5′:1,6]pyrido[2,3-d]pyrimidin-2-yl)methyl)phenyl)acrylamide]	10 to 100	> 100		

Continued, in another order:

IC50 (NCI-H1581 cells; [2]) [nM]	IC50 (FGFR1; [3]) [nM]	SMILES	IC50 (FGFR4) [nM]	also measured
1 to 10	< 1	COc1cc(OC)c(Cl)c(-c2cc3cnc(Nc4ccc(N5CCN(C6CCCC6)CC5)cc4)nc3n3cnnc23)c1 [Compound 104, 6-(2-chloro-3,5-dimethoxyphenyl)-N-(4-(4-cyclopentylpiperazin-1-yl)phenyl)-[1,2,4]triazolo[4′,3′:1,6]pyrido[2,3-d]pyrimidin-2-amine]		
< 1	< 1	COc1cc(OC)c(Cl)c(-c2cc3cnc(Nc4ccc(C5CCNCC5)c(C)c4)nc3n3cnnc23)c1 [Compound 52, 6-(2-chloro-3,5-dimethoxyphenyl)-N-(3-methyl-4-(piperidin-4-yl)phenyl)-[1,2,4]triazolo[4′,3′:1,6]pyrido[2,3-d]pyrimidin-2-amine]		
< 1	< 1	COc1cc(OC)c(Cl)c(-c2cc3cnc(Nc4ccc(N5CCN(C)CC5)cc4)nc3n3cnnc23)c1 [Compound 15, 6-(2-chloro-3,5-dimethoxyphenyl)-N-(4-(4-methylpiperazin-1-yl)phenyl)-[1,2,4]triazolo[4′,3′:1,6]pyrido[2,3-d]pyrimidin-2-amine]		
	< 1	COc1cc(OC)c(Cl)c(-c2cc3cnc(Nc4ccc(N(C)CCN(C)C)cc4)nc3n3cnnc23)c1 [Compound 21]		IC50 (NCI-H1581 cells; CellTiter 96 AQueous (144 hrs) or CellTiter Glo (96 hrs), class symbols, read-out: IC50(nM) value of compounds on NCI-H1581 cells): 1 to 10 nM
1 to 10	< 1	COc1cc(OC)c(Cl)c(-c2cc3cnc(Nc4ccc(N5CCN(C(C)=O)CC5)cc4)nc3n3cnnc23)c1 [Compound 106, 6-(2-chloro-3,5-dimethoxyphenyl)-N-(4-(4-acetylpiperazine-1-yl)phenyl)-[1,2,4]triazolo[4′,3′:1,6]pyrido[2,3-d]pyrimidin-2-amine]		
1 to 10	< 1	COc1cc(OC)c(Cl)c(-c2cc3cnc(Nc4ccc(N5CCN(CCO)CC5)cc4)nc3n3cnnc23)c1 [Compound 32, 2-(4-(4-((6-(2-chloro-3,5-dimethoxyphenyl)-[1,2,4]triazolo[4′,3′:1,6]pyrido[2,3-d]pyrimidin-2-yl)amino)phenyl)piperazin-1-yl)ethan-1-ol]		
1 to 10	> 10	CC[N+]1([O-])CCN(c2ccc(Nc3ncc4cc(-c5cc(OC)cc(OC)c5Cl)c5nncn5c4n3)cc2)CC1 [Compound 99, 4-(4-((6-(2-chloro-3,5-dimethoxyphenyl)-[1,2,4]triazolo[4′,3′:1,6]pyrido[2,3-d]pyrimidin-2-yl)amino)phenyl)-1-ethylpiperazine 1-oxide]		
< 1	< 1	CCN1CCN(c2ccc(Nc3ncc4cc(-c5c(Cl)c(OC)cc(OC)c5Cl)c5nncn5c4n3)cc2)CC1 [Compound 61, 6-(2,6-dichloro-3,5-dimethoxyphenyl)-N-(4-(4-ethylpiperazin-1-yl)phenyl)-[1,2,4]triazolo[4′,3′:1,6]pyrido[2,3-d]pyrimidin-2-amine]		
10 to 100	> 10	COc1cc(OC)c(Cl)c(-c2cc3cnc(Nc4ccc(N5CC6(CN(C(=O)N(C)C)C6)C5)cc4)nc3n3cnnc23)c1 [Compound 108, 6-(4-((6-(2-chloro-3,5-dimethoxyphenyl)-[1,2,4]triazolo[4′,3′:1,6]pyrido[2,3-d]pyrimidin-2-yl)amino)phenyl)-N,N-dimethyl-2,6-diazaspiro[3.3]heptane-2-carboxamide]		
10 to 100	< 1	COc1cc(OC)c(Cl)c(-c2cc3cnc(Nc4ccc(N5CC[N+]6(O)CCC[C@@H]6C5)cc4)nc3n3cnnc23)c1 (stereo partly drawn) [Compound 100, (8aR)-2-(4-((6-(2-chloro-3,5-dimethoxyphenyl)-[1,2,4]triazolo[4′,3′:1,6]pyrido[2,3-d]pyrimidin-2-yl)amino)phenyl)octahydro-5H-pyrrolo[1,2-a]pyrazine 5-oxide]		
1 to 10	< 1	COc1cc(OC)c(Cl)c(-c2cc3cnc(Nc4ccc(N5CCN(C6COC6)CC5)cc4)nc3n3cnnc23)c1 [Compound 13, 6-(2-chloro-3,5-dimethoxyphenyl)-N-(4-(4-(oxetan-3-yl)piperazin-1-yl)phenyl)-[1,2,4]triazolo[4′,3′:1,6]pyrido[2,3-d]pyrimidin-2-amine]		
